One series concerns PfHPPK. Set-up: method as in PMID 19631695. The settings on record: substrate of monofunctional PfHPPK; cited from earlier work.
The target in series [1] is T1, PfHPPK-GFP (Plasmodium falciparum, UniProt Q25704). Kind of series: DSF-GTP (GFP-tagged protein differential scanning fluorimetry) thermal shift. The settings on record: for ΔTm at 1000 µM: read-out: ΔTm (°C). Format: binding. The protocol:
In a preliminary screening experiment, buffer conditions were investigated, searching for conditions that provide the largest thermal shift in the presence of 1 mM ATP. DSF curves were recorded under a total of 17 different conditions, with variations in buffer nature and pH, salts nature and concentration, effect of reducing agent, MgSO4 and glycerol.
From there, protein binding properties of the hit compounds were assessed experimentally using the developed DSF-GTP assay. A total of 54 compounds were tested, including virtual screening hits and closely related structures. According to our protocol, each compound was mixed with PfHPPK-GFP and submitted to a temperature gradient from 30 °C to 90 °C at 1 °C/min while GFP fluorescence was recorded. The first derivative of the resulting curve was used to determine the melting temperature (Tm). For each set of experiments, a negative control containing DMSO was added, and ΔTm values were calculated for each compound vs. the DMSO control. […] Two compound families were identified as the most promising by our DSF-GTP assay: 5-phenylazo-2,4-diaminopyrimidines (series 1) and phenyltriazolyl-2-amino-4-pyrimidinone (series 2). In series 2, linkers of different lengths that separate the phenyl triazolyl and the pyrimidine moieties were included.
In a typical DSF-GTP experiment, a master mix containing buffer and PfHPPK-GFP was prepared in a microcentrifuge tube, corresponding to a final protein concentration of 20 μg/mL. Ligands of interest were dispensed in low-profile 96-well plates (Bio-Rad) to 1 mM final concentration, and the master mix was dispensed to a final volume of 50 μL per well. In these conditions, DMSO content was maintained constant at 2%. The microplate was sealed with adhesive film and mixed by shaking for 2 min at 800 rpm at RT. The microplate was then submitted to a DSF run on a CFX96 RT-PCR (Bio-Rad, Hercules, CA, USA). DSF program was designed by starting with a 3 min equilibration phase at 30 °C, followed by a temperature gradient of 1 °C/min until 90 °C, recording fluorescence every 0.5 °C. Fluorescence was recorded using the FAM channel (λex = 450–490 nm, λem = 510–530 nm). Curves were fitted using the Precision Melt Analysis software (Bio-Rad).
In general terms: In DSF a fluorescence change marks the thermal transition of the protein.

For series [2], the system named is Plasmodium falciparum V1/S (drug resistant). Kind of series: Antimalarial activity, [3H]-hypoxanthine incorporation assay, V1/S. Conditions: Plasmodium falciparum, P. falciparum V1/S (drug resistant); when no IC50 could be determined, highest tested concentration noted. The series is classed as cell-based. The protocol:
(§1) Finally, the various hit compounds were tested for their antimalarial activity against P. falciparum TM4/8.2 [26] and V1/S [27] strains. Parasite cultures were treated with test compounds at different concentrations, and antimalarial activity was measured using [3H]-hypoxanthine incorporation assay, according to our previously reported protocol. […] IC50 values could not be measured for other compounds. At this stage, there is no explanation for the difference in antiparasitic activity observed between TM4/8.2 and V1/S strains, and more investigations would be needed to conclude on this effect.
(§2) Compounds were tested for their antimalarial activity against P. falciparum TM4/8.2 [26] and V1/S [27] strains according to our previously reported protocol. In brief, parasite strains were maintained continuously in human erythrocytes in RPMI1640 supplemented with 25 mM HEPES pH 7.4, 0.2% NaHCO3, 40 µg/mL gentamicin and 8% human serum at 37 °C under 3% CO2. For in vitro antimalarial assay, parasite was treated with serial dilutions of the inhibitors, and parasite survival was determined using a modified microdilution radioisotope technique.

The test system of series [3] is Vero cell line (African green monkey kidney cells). Put plainly: Cytotoxicity, sulforhodamine B assay, Vero cells. Conditions: Chlorocebus sabaeus, 72 h, when no IC50 could be determined, highest tested concentration noted. Format: cell-based. A general note: The SRB assay estimates cell density from bound dye.
Series [4] in a line: Metabolic stability in human liver microsomes. The settings on record: human, liver microsomes. The protocol: (§3) Intrinsic clearance was also measured in both human and rat liver microsomes in order to assess sensitivity to metabolic degradation.
(§4) Metabolic stability of test compounds was determined in human and rat liver microsomes. The assay was adapted from a previously published method. Briefly, the test compounds were mixed with liver microsomes, and the metabolic reactions were initiated by the addition of NADPH. Acetonitrile containing an internal standard (labetalol) was added at 0, 5, 10, 30, and 60 min to stop the reactions. Samples were processed, and the remaining compounds in the reactions were detected using a LC-MS/MS. Distribution coefficient, solubility and polar surface area were predicted using Marvin software. Partition coefficient was predicted using ACD/Labs software.
(Liver microsomes are vesicles of endoplasmic reticulum, rich in cytochrome P450 enzymes.)

For series [5], the target named is T1, PfHPPK-GFP. Put plainly: KinaseGlo enzyme inhibition assay. The series is classed as biochemical. Conditions: 1 mM compound, 10 μM HMDP and 10 μM ATP, 20 min at RT; read-out: Inhib. at 1 mM (%). The protocol:
For all the compounds displaying a measurable change of Tm, PfHPPK inhibition was recorded at 10 μM HMDP and ATP and 1 mM compound using the KinaseGlo assay. These conditions were chosen to be in the reported Km range for both HMDP and ATP substrates, enabling detection of both competitive and uncompetitive inhibitors. Compounds were incubated with HMDP, ATP and HPPK-GFP for 20 min at RT, followed by addition of the KinaseGlo reagent. After 10 min equilibration, luminescence was recorded, which directly reflects the quantity of ATP left in solution at the end of the reaction. Percentages of inhibition were calculated based on a DMSO positive control and a negative control lacking HPPK-GFP. Compounds structures, ΔTm and levels of inhibition appear in Table 1 and Table 2.
PfHPPK-GFP inhibition assay was carried using the KinaseGlo Plus kit (Promega, Madison, WI, USA). In a black 96-well plate were dispensed test compounds (1 μL of 50 mM DMSO stock), master mix (100 mM Tris pH 9, 10 mM β-mercapto ethanol, 10 mM MgSO4, 0.01% w/v BSA, 10 μM HMDP and 10 μM ATP). Reaction was initiated by addition of 2 μg of enzyme, reaching a total reaction volume of 50 μL, and reaction was allowed to proceed for 20 min at RT shaking at 300 rpm. Reaction was then quenched by addition of 50 μL KinaseGlo reagent and allowed to equilibrate for 10 min at RT shaking at 300 rpm. Luminescence was recorded on a Biotek Synergy H1 plate reader (Agilent, Santa Clara, CA, USA) using an integration time of 1 s per well. Percentage of inhibition was calculated related to a positive control experiment (no enzyme added) and a negative control experiment (no inhibitor added).

Series [6] can be described thus: Metabolic stability in rat liver microsomes. Conditions: rat, liver microsomes. The protocol: as §3, §4
Series [7] concerns KB cell line (human epithelial carcinoma cells). Put plainly: Cytotoxicity, sulforhodamine B assay, KB cells. The series is classed as cell-based. Conditions: 72 h, when no IC50 could be determined, highest tested concentration noted.
Series [8] has as its system Plasmodium falciparum TM4/8.2 (drug sensitive). Kind of series: Antimalarial activity, [3H]-hypoxanthine incorporation assay, TM4/8.2. Format: cell-based. Conditions: P. falciparum TM4/8.2 (drug sensitive), when no IC50 could be determined, highest tested concentration noted. The protocol:
as §1, §2

In series [9] the target is T1, PfHPPK-GFP. Put plainly: KinaseGlo enzyme inhibition assay. The series is classed as biochemical. Conditions: dose-response inhibition, read-out: IC50 against the enzyme.

Where a name gives a salt, the structure may show the parent alone.

Consider 5 molecules from paper PMC9182141, “Assay Development and Identification of the First Plasmodium falciparum 7,8-dihydro-6-hydroxymethylpterin-pyrophosphokinase Inhibitors” (Molecules, 2022).

T1 sequence (Q25704 entry or part of it): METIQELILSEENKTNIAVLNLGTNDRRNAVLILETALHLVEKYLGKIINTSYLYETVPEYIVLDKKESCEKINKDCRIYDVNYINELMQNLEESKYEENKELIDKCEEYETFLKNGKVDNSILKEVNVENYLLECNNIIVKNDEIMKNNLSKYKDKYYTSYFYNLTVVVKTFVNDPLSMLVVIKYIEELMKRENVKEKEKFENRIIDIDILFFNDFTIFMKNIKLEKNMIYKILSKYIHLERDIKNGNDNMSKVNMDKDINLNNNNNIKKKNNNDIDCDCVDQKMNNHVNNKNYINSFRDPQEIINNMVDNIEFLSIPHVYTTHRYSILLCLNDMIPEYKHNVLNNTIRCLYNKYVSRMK

As to `Nc1ncnc2c1ncn2[C@@H]1O[C@H](COP(=O)(O)OP(=O)(O)OP(=O)(O)O)[C@@H](O)[C@H]1O` [ATP], in the series on PfHPPK, the Km (usually the substrate concentration at which the rate is half of its maximum) is 13.2 µM. Besides, on PfHPPK-GFP [1] (PfHPPK-GFP in optimal buffer in the presence of 1 mM ATP (apo form 81 °C)), the Tm (in general, the temperature at which the thermal transition is half complete) stood at 80 °C.

As to `CCc1nc(N)[nH]c(=O)c1CCc1cn(-c2ccc(C(=O)O)cc2)nn1` [Compound 11, 2-Amino-6-ethyl-5-(2-(1-(4-(carboxy)phenyl)-1H-1,2,3-triazol-4-yl)ethyl)pyrimidin-4(3H)-one hydrochloride], the IC50 in [2], in series [3], in [7] and in series [8] was greater than 50 µM throughout. In addition, the microsomal CLint (as a rule, the rate of metabolic loss divided by the concentration) in series [4] was less than 3 µL/min/mg; in series [6], 6.91 µL/min/mg. The ΔTm (in general, the shift of the melting midpoint relative to a reference) at 1000 µM on PfHPPK-GFP [1] was -1.3 ± 0.3 °C. Also, the inhibition at 1000 µM at PfHPPK-GFP [5] was 34.9 ± 5.5%.

On to `CCc1nc(N)[nH]c(=O)c1CCCc1cn(-c2ccc(C(=O)O)cc2)nn1` [Compound 13, 2-Amino-6-ethyl-5-(3-(1-(4-(carboxy)phenyl)-1H-1,2,3-triazol-4-yl)propyl)pyrimidin-4(3H)-one hydrochloride], for which the IC50 in series [2], in series [3], in [7] and in series [8] was greater than 50 µM throughout. Moreover, the microsomal CLint in series [4] is less than 3 µL/min/mg; in [6] it was 7.38 µL/min/mg. In addition, the ΔTm at 1000 µM on PfHPPK-GFP [1] is -1.5 °C. Also, the inhibition at 1000 µM on PfHPPK-GFP [5] came to 24.9 ± 3.1%.

In the case of `CCc1nc(N)[nH]c(=O)c1CCCc1cn(-c2cccc(C(=O)O)c2)nn1` [Compound 14, 2-Amino-6-ethyl-5-(3-(1-(3-(carboxy)phenyl)-1H-1,2,3-triazol-4-yl)propyl)pyrimidin-4(3H)-one], the IC50 (in general, the point on the concentration scale where inhibition reaches its midpoint) in series [2] was greater than 50 µM; in [3] it was greater than 50 µM; in series [7], greater than 50 µM; in series [8], greater than 50 µM; at PfHPPK-GFP [9], 814 ± 47 µM. Besides, the microsomal CLint was found to be 4.88 µL/min/mg in series [4] and 7.05 µL/min/mg in series [6]. Besides, the ΔTm at 1000 µM on PfHPPK-GFP [1] is -1.2 ± 0.3 °C. The inhibition at 1000 µM on PfHPPK-GFP [5] stood at 42.8 ± 5.5%.

Take `Nc1nc(O)c2c(n1)NCC(CO)=N2` [HMDP, 2-amino-4-hydroxy-6-hydroxymethyl-7,8-dihydropteridine]: the Km with PfHPPK is 2.1 µM.
